Patent US20140309256A1, “Therapeutic Method” (FibroGen, Inc., priority 2011, published 2014)

What was measured:
treated subjects = conditions: treatment of anemia with ESA; cited from earlier work
[1] = test system: Human subjects with stage 3 or 4 chronic kidney disease; experiment: Platelet counts in chronic kidney disease patients treated orally with Compound A; format: in vivo
Experimental: No intravenous iron administration was allowed during the treatment, and subjects who had received more than one administration of IV iron within 12 weeks prior to randomization were excluded.
Groups A (n=24) and B (n=24) received an initial weight-adjusted dose of 60 mg (for subjects of 40 to 60 kg), 100 mg (for subjects of >60 to 90 kg), or 140 mg (for subjects of >90 to 140 kg), three times a week for 4 weeks. Treatment was continued for weeks 5 through 16 with dose adjusted every 4 weeks to maintain hemoglobin of 11-13 g/dL (target Hb range). Group A continued dosing three time a week, Group B was switched to twice weekly dosing.
Groups C (n=24) received a initial fixed dose of 50 mg, three times a week for 4 weeks and group D (n=24) received an initial fixed dose of 100 mg, three times a week. Treatment was continued for weeks 5 to 24 with dose adjusted to maintain hemoglobin of 10.5-12 g/dL (target Hb range). Hemoglobin and platelet counts were measured every 4 weeks.
In a separate analysis of the data from Example 1, all patient data on platelet count over time was combined and stratified into quartiles based on the baseline platelet count. Each quartile had n=24. Quartile 1 included the 24 patients with the lowest baseline platelet count. Quartile 2 included the 24 patients with the next highest baseline platelet count after the patients in quartile 1. Quartile 3 included the 24 patients with the next highest baseline platelet count after the patients in quartile 2. Quartile 4 included the 24 patients with the highest baseline platelet count.

[2] = test system: Human subjects with stage 3 or 4 chronic kidney disease; experiment: Hemoglobin levels in chronic kidney disease patients treated orally with Compound A; format: in vivo; conditions: all groups A-D, oral, 16 or 24 weeks; all p<0.0001; dose-dependent
Experimental: No intravenous iron administration was allowed during the treatment, and subjects who had received more than one administration of IV iron within 12 weeks prior to randomization were excluded. […] Treatment was continued for weeks 5 through 16 with dose adjusted every 4 weeks to maintain hemoglobin of 11-13 g/dL (target Hb range). Group A continued dosing three time a week, Group B was switched to twice weekly dosing. Groups C (n=24) received a initial fixed dose of 50 mg, three times a week for 4 weeks and group D (n=24) received an initial fixed dose of 100 mg, three times a week. Treatment was continued for weeks 5 to 24 with dose adjusted to maintain hemoglobin of 10.5-12 g/dL (target Hb range). Hemoglobin and platelet counts were measured every 4 weeks.

PHD3 = PHD3 (Homo sapiens, UniProt Q9H6Z9); experiment: HIF prolyl hydroxylase enzyme assay, PHD3; format: biochemical
Description: (§1) Suitable assay methods are well known in the art.

PHD1 = PHD1 (Homo sapiens, UniProt Q96KS0); experiment: HIF prolyl hydroxylase enzyme assay, PHD1; format: biochemical
Description: as §1

PHD3, sequence (Q9H6Z9 whole entry): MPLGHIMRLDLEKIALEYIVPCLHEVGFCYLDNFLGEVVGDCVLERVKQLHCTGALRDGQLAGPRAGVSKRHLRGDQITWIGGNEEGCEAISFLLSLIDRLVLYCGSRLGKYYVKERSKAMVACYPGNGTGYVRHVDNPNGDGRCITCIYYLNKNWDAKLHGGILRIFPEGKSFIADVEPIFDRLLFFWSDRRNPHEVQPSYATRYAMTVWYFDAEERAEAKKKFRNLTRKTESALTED
PHD1, sequence (Q96KS0 whole entry): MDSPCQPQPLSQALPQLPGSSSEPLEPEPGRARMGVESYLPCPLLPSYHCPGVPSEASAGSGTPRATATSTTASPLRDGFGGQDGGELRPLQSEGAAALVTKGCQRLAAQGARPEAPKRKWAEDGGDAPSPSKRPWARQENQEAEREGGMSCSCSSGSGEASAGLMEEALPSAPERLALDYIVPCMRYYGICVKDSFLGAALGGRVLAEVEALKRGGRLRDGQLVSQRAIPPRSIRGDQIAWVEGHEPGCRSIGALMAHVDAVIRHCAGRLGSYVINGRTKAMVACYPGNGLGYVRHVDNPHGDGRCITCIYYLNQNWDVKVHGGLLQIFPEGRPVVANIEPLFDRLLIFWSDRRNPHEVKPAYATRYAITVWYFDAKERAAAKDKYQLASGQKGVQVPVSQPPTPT

Mean platelet count change from baseline to end of treatment ([1]; Group A, weight-adjusted dose three times a week, 16 weeks, baseline 267, p<0.0001)	Mean platelet count change from baseline to end of treatment ([1]; Group B, weight-adjusted dose, switched to twice weekly, 16 weeks, baseline 292, p<0.0001)	Mean platelet count change from baseline to end of treatment ([1]; Group C, initial fixed dose 50 mg three times a week, 24 weeks, baseline 255, p=0.89)	Mean platelet count change from baseline to end of treatment ([1]; Group D, initial fixed dose 100 mg three times a week, 24 weeks, baseline 231, p=0.30)	Mean change in platelet count from baseline to end of treatment, combined groups ([1]; week 17, p<0.0001)	Mean change in platelet count from baseline to end of treatment, combined groups ([1]; week 25, p=0.41)	Platelet count over course of treatment, stratified by baseline quartile ([1]; quartile 4 (highest), mean baseline 388.7×10^9/L)	IC50 (PHD3)	IC50 (PHD1)	Compound	Effect on platelet count in treated subjects (treated subjects)	Platelet count over course of treatment, stratified by baseline quartile ([1]; lower 3 quartiles, mean baseline 164.9, 224.8, 272.2 ×10^9/L)	Mean hemoglobin concentrations, end of treatment vs. baseline [2]
–	–	–	–	–	–	–	–	–	epoetin beta: erythropoiesis-stimulating agent, recombinant human erythropoietin (rHuEPO)	increase platelet count	–	–
–	–	–	–	–	–	–	–	–	epoetin α: erythropoiesis-stimulating agent, recombinant human erythropoietin (rHuEPO)	increase platelet count	–	–
−46.55 1×10^9/L	−43.67 1×10^9/L	−1.69 1×10^9/L	−11.88 1×10^9/L	−30.05	−6.94	decreased from baseline	200 to 2000 nM	200 to 2000 nM	Cc1nc(C(=O)NCC(=O)O)c(O)c2ccc(Oc3ccccc3)cc12 [Compound A, [(4-hydroxy-1-methyl-7-phenoxy-isoquinoline-3-carbonyl)-amino]-acetic acid]	–	maintained at (or not significantly increased from) the baseline level	increased from the baseline
